Here are results for 32 compounds from publication PMC7115580 (European Journal of Medicinal Chemistry, 2017).

Data set [1] deals with HeLa cells.
Data set [2] concerns human airway epithelial Calu-3 cells. Conditions: data not shown.
The target of data set [3] is wild type A/M2 proton channel (Influenza A virus, UniProt P0DOF5). The format is biochemical. The following applies: 100 μM; TEVC, Xenopus oocytes; data not shown.
Data set [4] has as its system HeLa cells. This is another data set of the same source.
For a further data set, the system named is Para-influenza-3 virus. Nature of the data set: organism not typed. The class given is cell-based. The following applies: Vero, read-out: Antiviral activity: EC50, Para-influenza-3 virus.
The conditions of data set [5]: metabolites of proguanil ref 32; cited from earlier work.
Another data set has as its target hDHFR (Homo sapiens, UniProt P00374). The format is biochemical. The following applies: Lineweaver-Burk plot at 3, 6 and 12 µM; substrate DHF.
Another data set relates to Reovirus-1. The experiment in a line: organism not typed. The class given is cell-based. The following applies: Vero, read-out: Antiviral activity: EC50, Reovirus-1.
In the next data set the test system is Punta Toro virus. The experiment in a line: microbe, parasite or virus in culture. Conditions: Vero, read-out: Antiviral activity: EC50, Punta Toro virus. The class given is cell-based.

Structures can show the parent of a compound that is named as a salt. Where two headings read alike, the source gives them in different places.

Chain of wild type A/M2 proton channel (P0DOF5 whole entry, looked up): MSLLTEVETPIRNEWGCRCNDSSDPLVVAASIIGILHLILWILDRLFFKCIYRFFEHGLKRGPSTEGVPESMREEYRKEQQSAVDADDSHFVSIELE
Chain of hDHFR (P00374 whole entry): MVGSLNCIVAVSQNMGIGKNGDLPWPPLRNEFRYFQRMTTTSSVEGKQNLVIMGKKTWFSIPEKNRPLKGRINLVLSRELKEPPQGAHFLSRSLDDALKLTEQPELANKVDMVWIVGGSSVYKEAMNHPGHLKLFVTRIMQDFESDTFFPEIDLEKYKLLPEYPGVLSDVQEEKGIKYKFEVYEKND

On to `CC1(C)N=C(N)N=C(N)N1c1ccc(Br)cc1` [Compound 6], for which the “Cytotoxicity: MCC” value with Vero cells (Vero cells, microscopy) is over 100 µM; in the data set with HeLa cells [1] (HeLa cells, microscopy) it was over 100 µM.
For `CC1(C)N=C(N)N=C(N)N1c1cc(C(F)(F)F)cc(C(F)(F)F)c1` [Compound 17, 4,6-Diamino-2,2-dimethyl-1-(3,5-ditrifluoromethylphenyl)-1,2-dihydrotriazine hydrochloride], the “Cytotoxicity: MCC” value is over 100 µM in the data set with Vero cells (African green monkey) and at least 100 µM in the data set with HeLa cells [1] (human).
For the compound `CC1(C)N=C(N)N=C(N)N1c1cccc(Cl)c1` [Compound 11], in the data set on HeLa cells [1] (HeLa cells, microscopy), the “Cytotoxicity: MCC” value was over 100 µM. Also, in data set [2], the “Cytotoxicity MCC” value is over 100 µM.
With `NC1=NC2(CCCC2)N(c2ccc(Cl)cc2)C(N)=N1` [Compound 20], the “Cytotoxicity: MCC” value with Vero cells (Vero cells, microscopy) was over 100 µM; in the data set on HeLa cells [1] (HeLa cells, microscopy), over 100 µM.
For `NC1=NC2(CCCCC2)N(c2cccc(Cl)c2)C(N)=N1` [Compound 24], the “Cytotoxicity: MCC” value in the data set on Vero cells (Vero cells, microscopy) is over 100 µM; in the data set with HeLa cells [1] (HeLa cells, microscopy) it was at least 100 µM.
The corresponding values for `CC1(C)N=C(N)N=C(N)N1c1ccc([N+](=O)[O-])cc1` [Compound 7] are over 100 µM and over 100 µM.
The corresponding values for `COc1ccc(N2C(N)=NC(N)=NC2(C)C)cc1` [Compound 4] are over 100 µM and over 100 µM.
`NC1=NC2(CCCCC2)N(c2cccc(C(F)(F)F)c2)C(N)=N1` [Compound 25, 2,2-Cyclopentamethylene-4,6-diamino-1-(3-trifluoromethylphenyl)-1,2-dihydrotriazine hydrochloride]: the “Cytotoxicity: MCC” value in the data set on Vero cells (Vero cells, microscopy) is over 100 µM; with HeLa cells [1] (HeLa cells, microscopy), at least 100 µM. The “Cytotoxicity MCC” value in data set [2] is over 100 µM.
With `CC1(C)N=C(N)N=C(N)N1c1ccc(Cl)cc1Cl` [Compound 15], the “Cytotoxicity: MCC” value with Vero cells (Vero cells, microscopy) is over 100 µM; in the data set with HeLa cells [1] (HeLa cells, microscopy) it was over 100 µM.
For `CCc1nc(N)nc(N)c1-c1ccc(Cl)cc1` [Compound 32, pyrimethamine, reference compound], the “Cytotoxicity: MCC” value in the data set with HeLa cells [1] (HeLa cells, microscopy) was at least 100 µM. Further, in data set [2], the “Cytotoxicity MCC” value is over 100 µM.
On to `NC1=NC2(CCCC2)N(c2cccc(C(F)(F)F)c2)C(N)=N1` [Compound 22, 2,2-Cyclotetramethylene-4,6-diamino-1-(3-trifluoromethylphenyl)-1,2-dihydrotriazine hydrochloride], for which the “Cytotoxicity: MCC” value is over 100 µM with Vero cells (Vero cells, microscopy) and at least 100 µM with HeLa cells [1] (HeLa cells, microscopy).
As to `CC1(C)N=C(N)N=C(N)N1c1cccc(C(F)(F)F)c1` [Compound 14], in the data set on HeLa cells [1] (HeLa cells, microscopy), the “Cytotoxicity: MCC” value is at least 100 µM. Further, the “Inhibition of wild type M2 channel” value in [3] was “neither of the three compounds significantly inhibited”. The “Cytotoxicity MCC” value in the data set on HeLa cells [4] (dihydrofolic acid 1.0 μM), with HeLa cells [4] (dihydrofolic acid 2.6 μM), in the data set on HeLa cells [4] (dihydrofolic acid 16 μM), in the data set on HeLa cells [4] (dihydrofolic acid 40 μM), with HeLa cells [4] (dihydrofolic acid 400 μM) and with HeLa cells [4] (human) was 20 µM in each case. Moreover, the “Cytotoxicity MCC” value in the data set with HeLa cells [4] (independent of whether dihydrofolic acid was present or not) was 20 µM; in data set [2], over 100 µM.
Take `CC(C)C1(C)N=C(N)N=C(N)N1c1ccc(Cl)cc1` (stereo not drawn) [Compound 19]: the “Cytotoxicity: MCC” value is over 100 µM with Vero cells (Vero cells, microscopy) and over 100 µM with HeLa cells [1] (HeLa cells, microscopy).
With `CC1(C)N=C(N)N=C(N)N1c1ccc(C(=O)O)cc1` [Compound 8], the “Cytotoxicity: MCC” value in the data set on Vero cells (Vero cells, microscopy) is over 100 µM; with HeLa cells [1] (HeLa cells, microscopy), over 100 µM.
Take `NC(=O)c1ncn([C@@H]2O[C@H](CO)[C@@H](O)[C@H]2O)n1` [Ribavirin]: the EC50 (in general, the concentration that produces a half-maximal response) in the data set on Para-influenza-3 virus came to 112 µM.
In the case of `CC1(C)N=C(N)N=C(N)N1c1cccc(F)c1` [Compound 12, 4,6-Diamino-2,2-dimethyl-1-(3-fluorophenyl)-1,2-dihydrotriazine hydrochloride], the “Cytotoxicity: MCC” value in the data set on HeLa cells [1] (human) is at least 100 µM.
As for `CC1(C)N=C(N)N=C(N)N1c1ccccc1Cl` [Compound 10], the “Cytotoxicity: MCC” value with Vero cells (Vero cells, microscopy) is over 100 µM; with HeLa cells [1] (HeLa cells, microscopy), over 100 µM.
In the case of `NC1=NC2(CCCC2)N(c2cccc(Cl)c2)C(N)=N1` [Compound 21, 1-(3-Chlorophenyl)-2,2-cyclotetramethylene-4,6-diamino-1,2-dihydrotriazine hydrochloride], the “Cytotoxicity: MCC” value is over 100 µM in the data set with Vero cells (Vero cells, microscopy) and at least 100 µM in the data set with HeLa cells [1] (HeLa cells, microscopy).
`CC1(C)N=C(N)N=C(N)N1c1ccc(Cl)c(Cl)c1` [Compound 16]: the “Cytotoxicity: MCC” value with HeLa cells [1] (HeLa cells, microscopy) was over 100 µM. Besides, in data set [3], the “Inhibition of wild type M2 channel” value is listed as “neither of the three compounds significantly inhibited”. The “Cytotoxicity MCC” value in data set [2] was over 100 µM.
For `CC1(C)N=C(N)N=C(N)N1c1ccccc1` [Compound 2], the “Cytotoxicity: MCC” value with Vero cells (Vero cells, microscopy) was over 100 µM; with HeLa cells [1] (HeLa cells, microscopy), over 100 µM.
Consider `CC1(C)N=C(N)N=C(N)N1c1ccc(Cl)cc1` [Compound 1, cycloguanil, reference compound], for which the “Cytotoxicity: MCC” value with Vero cells (Vero cells, microscopy) was over 100 µM; in the data set with HeLa cells [1] (HeLa cells, microscopy) it was over 100 µM. The “Share of the total drug concentration in plasma” value in data set [5] was “about 30%”. Besides, the “Inhibition of wild type M2 channel” value in [3] is “neither of the three compounds significantly inhibited”. The “Inhibition pattern towards the substrate” value at hDHFR is recorded as “competitive inhibition pattern”. Also, in [2], the “Cytotoxicity MCC” value was over 100 µM.
For the compound `CC1(C)N=C(N)N=C(N)N1c1cccc(Br)c1` [Compound 13], the “Cytotoxicity: MCC” value in the data set with Vero cells (Vero cells, microscopy) was over 100 µM; with HeLa cells [1] (HeLa cells, microscopy) it was at least 100 µM. The “Cytotoxicity MCC” value in data set [2] was over 100 µM.
With `CC1(C)N=C(N)N=C(N)N1c1ccc(F)cc1` [Compound 5], the “Cytotoxicity: MCC” value in the data set with Vero cells (Vero cells, microscopy) was over 100 µM; in the data set on HeLa cells [1] (HeLa cells, microscopy) it was over 100 µM.
With `CC1(C)N=C(N)N=C(Nc2ccc(Cl)cc2)N1` [Compound 29], the “Cytotoxicity: MCC” value in the data set on Vero cells (Vero cells, microscopy) is over 100 µM; in the data set on HeLa cells [1] (HeLa cells, microscopy), over 100 µM.
As for `CCC1(C)N=C(N)N=C(N)N1c1ccc(Cl)cc1` (stereo not drawn) [Compound 18], the “Cytotoxicity: MCC” value in the data set with Vero cells (Vero cells, microscopy) was over 100 µM; in the data set on HeLa cells [1] (HeLa cells, microscopy) it was over 100 µM.
For the compound `N=C(N)NC(=N)Nc1ccc(Cl)cc1` [1-(4-chlorophenyl)biguanide], in data set [5], the “Share of the total drug concentration in plasma” value is given as about 23%.
`COc1c(C)c2c(c(O)c1C/C=C(\C)CCC(=O)O)C(=O)OC2` [Mycophenolic acid]: the EC50 with Reovirus-1 was found to be 1.8 µM; in the data set with Punta Toro virus, 20 µM.
In the case of `Cc1ccc(N2C(N)=NC(N)=NC2(C)C)cc1` [Compound 3], the “Cytotoxicity: MCC” value with Vero cells (Vero cells, microscopy) was over 100 µM; in the data set on HeLa cells [1] (HeLa cells, microscopy), over 100 µM.
In the case of `CCCC1N=C(N)N=C(N)N1c1ccc(Cl)cc1` (stereo not drawn) [Compound 27], the “Cytotoxicity: MCC” value with Vero cells (Vero cells, microscopy) is over 100 µM; in the data set on HeLa cells [1] (HeLa cells, microscopy), over 100 µM.
Consider `CCOC(=O)c1ccc(N2C(N)=NC(N)=NC2(C)C)cc1` [Compound 9], for which the “Cytotoxicity: MCC” value with Vero cells (Vero cells, microscopy) is over 100 µM; with HeLa cells [1] (HeLa cells, microscopy) it was over 100 µM.
Turning to `NC1=NC(c2ccccc2)N(c2ccc(Cl)cc2)C(N)=N1` (stereo not drawn) [Compound 28], in the data set on Vero cells (Vero cells, microscopy), the “Cytotoxicity: MCC” value was over 100 µM.
Consider `[H]/N=C(\N/C(=N/[H])Nc1ccc(Cl)cc1)NC(C)C` [Compound 30, proguanil, reference compound], for which the “Cytotoxicity: MCC” value in the data set on Vero cells (Vero cells, microscopy) was 20 µM; with HeLa cells [1] (HeLa cells, microscopy), over 100 µM.
